Reference: ChEMBL document CHEMBL3217527, “The Synthesis and Evaluation of Dihydroquinazolin-4-ones and Quinazolin-4-ones as Thyroid Stimulating Hormone Receptor Agonists” (Medchemcomm, 2011)

Target: Lutropin-choriogonadotropic hormone receptor (Homo sapiens, UniProt P22888)
Experiment: Agonist activity at LHCGR (unknown origin)
Conditions: not given

Sequence of Lutropin-choriogonadotropic hormone receptor (P22888 whole entry): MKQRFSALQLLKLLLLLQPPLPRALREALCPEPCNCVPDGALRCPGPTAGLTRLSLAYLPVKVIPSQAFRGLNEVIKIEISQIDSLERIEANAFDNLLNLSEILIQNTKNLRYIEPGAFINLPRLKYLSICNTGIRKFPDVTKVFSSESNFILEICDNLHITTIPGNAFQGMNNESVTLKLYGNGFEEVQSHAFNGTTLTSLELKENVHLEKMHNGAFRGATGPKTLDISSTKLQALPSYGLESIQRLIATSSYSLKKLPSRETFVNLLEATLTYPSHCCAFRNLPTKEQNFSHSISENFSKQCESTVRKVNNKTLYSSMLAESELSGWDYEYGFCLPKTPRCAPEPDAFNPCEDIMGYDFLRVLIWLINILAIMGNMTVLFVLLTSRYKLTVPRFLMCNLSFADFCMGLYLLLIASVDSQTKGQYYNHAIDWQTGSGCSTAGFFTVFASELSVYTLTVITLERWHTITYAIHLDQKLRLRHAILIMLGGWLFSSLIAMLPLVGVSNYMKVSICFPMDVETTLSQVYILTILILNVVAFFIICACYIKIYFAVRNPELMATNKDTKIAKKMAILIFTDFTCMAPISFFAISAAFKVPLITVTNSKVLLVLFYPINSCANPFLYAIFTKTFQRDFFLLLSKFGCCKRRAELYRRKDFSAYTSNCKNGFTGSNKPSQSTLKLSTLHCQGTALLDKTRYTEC

Row | SMILES | EC50 [nM]
1 | COc1cccc(-c2nc(SC)nc3sc(C(=O)NC(C)(C)C)c(N)c23)c1 | 220

Test system: not listed separately
Experiment: Half life in acidic aqueous conditions at pH 2
Format: physicochemical
Conditions: acidic aqueous solution

Row | SMILES | half-life [h]
2 | COc1ccc(C2Nc3cccc(O)c3C(=O)N2Cc2ccccc2)cc1COc1ccc(NC(C)=O)cc1 (configuration not stated) | 3

Target: T1, Thyrotropin receptor (Homo sapiens, UniProt P16473)
T1 sequence (P16473 whole entry): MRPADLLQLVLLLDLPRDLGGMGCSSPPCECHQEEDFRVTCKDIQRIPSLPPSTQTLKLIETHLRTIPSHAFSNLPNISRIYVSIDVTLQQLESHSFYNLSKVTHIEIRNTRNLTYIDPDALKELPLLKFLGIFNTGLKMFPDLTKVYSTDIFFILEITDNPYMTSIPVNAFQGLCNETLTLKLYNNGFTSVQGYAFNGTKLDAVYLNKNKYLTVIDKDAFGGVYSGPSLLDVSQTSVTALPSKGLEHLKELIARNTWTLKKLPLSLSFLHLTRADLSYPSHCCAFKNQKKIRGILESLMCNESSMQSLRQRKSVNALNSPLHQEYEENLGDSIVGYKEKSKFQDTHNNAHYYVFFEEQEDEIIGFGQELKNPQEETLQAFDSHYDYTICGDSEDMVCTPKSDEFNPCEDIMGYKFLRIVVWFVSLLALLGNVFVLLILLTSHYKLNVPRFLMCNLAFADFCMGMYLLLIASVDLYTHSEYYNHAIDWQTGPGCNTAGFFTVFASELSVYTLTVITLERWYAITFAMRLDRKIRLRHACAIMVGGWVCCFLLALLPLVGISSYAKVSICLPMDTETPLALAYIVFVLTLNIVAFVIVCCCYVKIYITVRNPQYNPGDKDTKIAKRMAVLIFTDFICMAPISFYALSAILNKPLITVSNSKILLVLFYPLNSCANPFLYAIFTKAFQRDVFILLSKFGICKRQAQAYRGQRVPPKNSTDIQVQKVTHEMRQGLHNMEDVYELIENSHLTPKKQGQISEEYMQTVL
Experiment: Agonist activity at TSHR (unknown origin)
Conditions: not given

Row | SMILES | EC50 [nM]
3 | COc1cccc(-c2nc(SC)nc3sc(C(=O)NC(C)(C)C)c(N)c23)c1 | 7700

Target: T1, Thyrotropin receptor
Experiment: Agonist activity at TSHR (unknown origin) transiently transfected HEK-EM293 cells assessed as cAMP level after 1 hr by ELISA
Format: functional, cell-based
Conditions: not given

Row | SMILES | EC50 [nM]
4 | COc1ccc(C2Nc3cccc(OC)c3C(=O)N2Cc2ccccc2)cc1COc1ccc(NC(C)=O)cc1 (configuration not stated) | 4480
5 | COc1ccc(C2Nc3ccccc3C(=O)N2Cc2ccco2)cc1COc1ccc(NC(C)=O)cc1 (configuration not stated) | 1160
6 | COc1ccc(OCc2cc(C3Nc4ccccc4C(=O)N3Cc3ccccc3)ccc2OC)cc1 (configuration not stated) | 2160
7 | COc1ccc(C2Nc3ccccc3C(=O)N2Cc2ccccc2)cc1COc1ccccc1 (configuration not stated) | 2570
8 | COc1ccc(C2Nc3ccccc3C(=O)N2Cc2ccncc2)cc1COc1ccc(NC(C)=O)cc1 (configuration not stated) | 3980
9 | COc1ccc(-c2nc3ccccc3c(=O)n2Cc2ccco2)cc1COc1ccc(NC(C)=O)cc1 | 930
10 | CC(=O)Nc1ccc(OCc2cccc(C3Nc4ccccc4C(=O)N3Cc3ccccc3)c2)cc1 (configuration not stated) | 1860
11 | COc1ccc(C2Nc3ccccc3C(=O)N2Cc2ccccc2)cc1COc1cccc(NC(C)=O)c1 (configuration not stated) | 4340
12 | COc1ccc(C2Nc3ccc(O)cc3C(=O)N2Cc2ccccc2)cc1COc1ccc(NC(C)=O)cc1 (configuration not stated) | 330
13 | COc1ccc(C2Nc3ccccc3C(=O)N2Cc2ccccc2)cc1CSc1ccc(NC(C)=O)cc1 (configuration not stated) | 80
14 | COc1ccc(C2Nc3cccc(O)c3C(=O)N2Cc2ccccc2)cc1CSc1ccc(NC(C)=O)cc1 (configuration not stated) | 18
15 | COc1ccc(-c2nc3cccc(O)c3c(=O)n2Cc2ccccc2)cc1COc1ccc(NC(C)=O)cc1 | 550
16 | COc1ccc(C2Nc3ccccc3C(=O)N2Cc2ccccc2)cc1COc1ccc(NC(C)=O)cc1 (configuration not stated) | 290
17 | COc1ccc(C2Nc3ccccc3C(=O)N2c2ccccc2)cc1COc1ccc(NC(C)=O)cc1 (configuration not stated) | 5090
18 | COc1ccc(C2Nc3cccc(O)c3C(=O)N2Cc2ccccc2)cc1COc1ccc(NC(C)=O)cc1 (configuration not stated) | 90
19 | COc1ccc(C2Nc3cccc(F)c3C(=O)N2Cc2ccccc2)cc1COc1ccc(NC(C)=O)cc1 (configuration not stated) | 280
20 | COc1ccc(C2Nc3ccccc3C(=O)N2CCc2ccccc2)cc1COc1ccc(NC(C)=O)cc1 (configuration not stated) | 430
21 | CCCCN1C(=O)c2ccccc2NC1c1ccc(OC)c(COc2ccc(NC(C)=O)cc2)c1 (configuration not stated) | 830
22 | COc1ccc(-c2nc3ccccc3c(=O)n2Cc2ccccc2)cc1COc1ccc(NC(C)=O)cc1 | 960
